Measurements from patent publication US20050266096A1, “New synergetic compositions of vitamins, minerals and trace-elements to stimulate the elimination of intra-cellular lipid deposits” (priority 2004, published 2005).

Tested on: vascular smooth muscle cells
Test: Reduction of intracellular lipid deposits in lipid-loaded cell cultures
Type: cell-based
Conditions: for effect on the reduction/elimination of intracellular lipid deposits (in words): tables 1-3; for Percent decrease in intracellular lipids: individual element, concentration per row in μg/ml (0.016% RDA), 3 days after exposure, vs untreated control cultures = 100% lipid deposits, n = 24
Protocol: To evaluate the effects of vitamins, minerals & trace-elements on the cellular capacity to eliminate intracellular lipid deposits, the cultures of vascular smooth muscle cells were prepared on plastic cover slips in vitro as described by Shrivastava at al (Meth Expt Find,1994).
A 50-60% cell monolayer was obtained within 4 days of culture. The hyperlipidemic rabbit serum was added to the culture medium, cells were incubated at 37° C.-5% CO2 for 48 h and the presence of intracellular cytoplasmic lipid deposit was quantified (considered 100% lipid deposits) . The culture medium was then replaced by a predefined blank medium containing no vitamins, minerals & trace-elements containing 1% fetal calf serum. Desired concentrations of vitamins, minerals and trace-elements were prepared in the predefined control culture medium by dissolving the test substances in the medium and by replacing the culture medium by the test product containing medium.
The in vitro cytoxicity of each vitamin, mineral and trace-element was determined. […]
The results were expressed a mean percentage decrease in intracellular lipid deposits compared to the untreated control cultures considered as containing 100% lipid deposits.

Compound | effect on the reduction/elimination of intracellular lipid deposits (in words) | Percent decrease in intracellular lipids
CC(=O)Oc1c(C)c(C)c2c(c1C)CCC(C)(CCC[C@H](C)CCC[C@H](C)CCCC(C)C)O2 (stereo partly drawn) [Vitamin E, tocopherol acetate] | minor effect | 
CC1=C(/C=C/C(C)=C/C=C/C(C)=C/C=C/C=C(C)/C=C/C=C(C)/C=C/C2=C(C)CCCC2(C)C)C(C)(C)CCC1 [Vitamin A, beta carotene] | minor effect | 
[Cl-].[K+] [Potassium, potassium chloride] |  | 0.0%
calcium gluconate |  | 0.0%
[O]=[Mg] [Magnesium, magnesium oxide] | minor effect | 22.0 ± 5.2%
Cc1cc2nc3c(=O)[nH]c(=O)nc-3n(C[C@H](O)[C@H](O)[C@H](O)CO)c2cc1C [Vitamin B2, riboflavin] | minor effect | 
iron gluconate |  | 6.3 ± 2.7%
[I-].[K+] [Iodine, potassium iodide] |  | 0.0%
Nc1nc2ncc(CNc3ccc(C(=O)N[C@@H](CCC(=O)O)C(=O)O)cc3)nc2c(=O)[nH]1 [Vitamin B9, folic acid] | minor effect | 
[O-2].[Zn+2] [Zinc, zinc oxide] | minor effect | 16.3 ± 4.4%
